The record followed here is ChEMBL document CHEMBL1136120, “Effect of catechol derivatives on cell growth and lipoxygenase activity” (Bioorg Med Chem Lett, 2003).

The target of experiment [1] is Polyunsaturated fatty acid lipoxygenase ALOX15 (Oryctolagus cuniculus) (UniProt P12530). The experiment in a line: Inhibition of rabbit reticulocyte 15-lipoxygenase by compound (30 uM).
Experiment [2] concerns MAC16. Briefly: Inhibitory activity against MAC16 cell lines. Format: functional, cell-based. As to conditions: Mus musculus.
For experiment [3], the system named is MAC13. The experiment in a line: Inhibitory activity against MAC13 cell lines. The format is functional, cell-based. As to conditions: Mus musculus.
In experiment [4] the test system is MAC16. The experiment in a line: Effect on metabolism of arachidonic acid for 5-HETE production through 5-LOX (5-lipoxygenase) pathway. The format is functional, Mus musculus.
Experiment [5] relates to MAC16. Briefly: Effect on metabolism of arachidonic acid for 5-HETE production through 15-LOX (15-lipoxygenase) pathway. Format: functional, Mus musculus.
Experiment [6] has as its system MAC16. The experiment in a line: Effect on metabolism of arachidonic acid for 5-HETE production through 12-LOX (12-lipoxygenase) pathway. Format: functional, Mus musculus.
For experiment [7], the system named is MAC16. Briefly: Effect on metabolism of arachidonic acid for 12-HETE production through 12-LOX (12-lipoxygenase) pathway. Format: functional, Mus musculus.
In experiment [8] the test system is MAC16. Briefly: Effect on metabolism of arachidonic acid for 15-HETE production through 15-LOX (15-lipoxygenase) pathway. The format is functional, Mus musculus.

The structures appear in SMILES notation.

Sequence of Polyunsaturated fatty acid lipoxygenase ALOX15 (Oryctolagus cuniculus) (P12530 whole entry, looked up): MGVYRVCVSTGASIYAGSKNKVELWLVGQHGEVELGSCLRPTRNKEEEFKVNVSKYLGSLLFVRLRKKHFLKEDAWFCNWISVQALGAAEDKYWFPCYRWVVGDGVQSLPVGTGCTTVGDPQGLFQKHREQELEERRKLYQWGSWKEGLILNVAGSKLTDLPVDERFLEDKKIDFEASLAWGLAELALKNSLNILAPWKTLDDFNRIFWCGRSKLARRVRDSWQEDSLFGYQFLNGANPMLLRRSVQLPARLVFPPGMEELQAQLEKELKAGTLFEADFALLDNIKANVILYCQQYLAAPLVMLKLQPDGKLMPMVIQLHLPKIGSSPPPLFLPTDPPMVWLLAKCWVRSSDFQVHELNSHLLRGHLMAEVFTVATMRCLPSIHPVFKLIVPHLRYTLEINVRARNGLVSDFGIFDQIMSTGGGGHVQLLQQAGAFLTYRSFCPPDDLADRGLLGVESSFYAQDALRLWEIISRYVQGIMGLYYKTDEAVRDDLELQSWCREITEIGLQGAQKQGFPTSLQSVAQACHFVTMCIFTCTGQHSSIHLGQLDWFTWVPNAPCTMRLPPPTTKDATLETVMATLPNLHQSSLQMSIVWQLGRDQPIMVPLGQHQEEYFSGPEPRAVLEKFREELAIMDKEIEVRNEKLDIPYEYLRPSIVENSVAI

In the case of `O=C(Nc1ccc(O)c(O)c1)c1ccc(NCc2ccccc2O)cc1`, the inhibition in experiment [1] is 103%.
On the same count and under the same terms, in the case of `O=C(CCc1ccc(NC(=O)c2ccccc2O)cc1)Nc1ccc(O)c(O)c1` it was 99%; in that of `O=C(Nc1ccc(NC(=O)c2ccccc2O)cc1)Nc1ccc(O)c(O)c1`, 104%.
In the case of `O=C(/C=C/c1ccc(NC(=O)c2ccccc2O)cc1)Nc1ccc(O)c(O)c1`, the IC50 in experiment [2] came out at 300000 nM; in experiment [3], 3000 nM. Moreover, the inhibition in experiment [1] is 102%.
With `CC1=C(C)C(=O)C(Cc2cccnc2)=C(C)C1=O`, the Eicosanoid production worked out at 13.3 pM 2hr-1 in experiment [4], 22.2 pM 2hr-1 in experiment [5] and 15 pM 2hr-1 in experiment [6]. Further, the results for the IC50 in experiment [2] and in experiment [3] were 4750 nM and 6300 nM, respectively. Besides, the inhibition in experiment [1] amounted to 3%.
In the case of `COc1ccccc1C(=O)Nc1ccc(CCC(=O)Nc2ccc3c(c2)OC(C)(CCc2ccccc2)O3)cc1` (configuration not stated), the Eicosanoid production came to 110 pM 2hr-1 in experiment [4], 91.5 pM 2hr-1 in experiment [5] and 78 pM 2hr-1 in experiment [6]. The IC50 in experiment [2] and in experiment [3] was greater than 50000 nM throughout.
As for `O=C(CCc1cccc(NC(=O)c2ccccc2O)c1)Nc1ccc(O)c(O)c1`, the Eicosanoid production turned out to be 4.7 pM 2hr-1 in experiment [4], 7.8 pM 2hr-1 in experiment [7] and 5.3 pM 2hr-1 in experiment [8]. The IC50 turned out to be 2600 nM in experiment [2] and 330 nM in experiment [3]. Also, the inhibition in experiment [1] was 102%.
Turning to `CCCCCCCc1ccc(C(=O)Nc2ccc(O)c(O)c2)cc1`, the results for the IC50 in experiment [2] and in experiment [3] were 1000 nM and 900 nM, respectively.
Turning to `O=C(Nc1ccc(O)c(O)c1)c1ccc(NC(=O)c2ccccc2O)cc1`, the inhibition in experiment [1] was determined as 100%.
On the same count and under the same terms, with `O=C(Nc1ccc(/N=C(\S)Nc2ccc(O)c(O)c2)cc1)c1ccccc1O` the figure was 103%.
